Measurements: patent US11261186B2, “Biaryl derivative as GPR120 agonist” (LG CHEM, LTD., priority 2014, dated 2022)

Molecular target: T1, hGPR120 (Homo sapiens, UniProt Q5NUL3)
T1 construct: expressed in transfected cells; host or cells: CHO-K1
T1 sequence (Q5NUL3 1-361): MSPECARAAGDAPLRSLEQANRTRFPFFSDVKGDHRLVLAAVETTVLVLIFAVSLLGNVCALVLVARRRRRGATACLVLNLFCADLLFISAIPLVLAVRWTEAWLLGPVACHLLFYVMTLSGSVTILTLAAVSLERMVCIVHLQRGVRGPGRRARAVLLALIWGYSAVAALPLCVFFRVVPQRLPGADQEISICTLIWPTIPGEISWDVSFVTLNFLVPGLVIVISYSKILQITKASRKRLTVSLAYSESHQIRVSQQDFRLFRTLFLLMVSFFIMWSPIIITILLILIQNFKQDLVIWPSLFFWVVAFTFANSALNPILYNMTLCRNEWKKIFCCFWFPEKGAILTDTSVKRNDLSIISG
Assay: Measurement of Activity of GPR120 Agonist (Cell-Based Assay), Calcium 5 dye fluorescence
Conditions: CHO-K1 cells expressing Ga16 and hGPR120
Description: CHO-K1 cells expressing Ga16 and hGPR120 were dispensed into each well of a 96-well plate (3×10^4 cells/100 μl/well) and then incubated in 5% CO2, 37° C. incubator for 18 hours. Each well was treated with 100 μl of Calcium 5 dye (Molecular Devices) solution including 2% DMSO and then incubated in 5% CO2, 37° C. incubator for 1 hour. Serially diluted GPR120 agonists were prepared to a final concentration of 0.5% DMSO in a 96-well plate. Each well was treated with 50 μl of the agonist compounds using Plexstation II, and then fluorescence was measured at Ex 485 nm and Em 525 nm.
Fluorescence increased by the serially diluted GPR120 agonists is calculated as a relative percent (%) value based on the fluorescence represented by the treatment of 1% DMSO only. […] The calculation of measurement was carried out by using statistical software (Prizm).
Activity is denoted based on the following criteria: […]

| Structure (SMILES) | EC50 |
| --- | --- |
| CN(Cc1cc(O)no1)c1ccc(-c2cccnc2OC2CCCC2)cc1 [Example 86, 5-[[4-[2-(cyclopentoxy)-3-pyridyl]-N-methyl-anilino]methyl]isoxazol-3-ol] | < 200 nM |
| Oc1cc(CCc2c(F)cc(-c3cccnc3OC3CCCC3)cc2F)on1 [Example 87, 5-[2-[4-[2-(cyclopentoxy)-3-pyridyl]-2,6-difluoro-phenyl]ethyl]isoxazol-3-ol] | < 200 nM |
| CC(Cc1cc(O)no1)c1c(F)cc(-c2cccnc2OC2CCCC2)cc1F (stereo not shown) [Example 88, 5-[2-[4-[2-(cyclopentoxy)-3-pyridyl]-2,6-difluoro-phenyl]propyl]isoxazol-3-ol] | < 200 nM |
| Oc1cc(CCOc2c(F)cc(-c3cccnc3OC3CCCC3)cc2F)on1 [Example 89, 5-[2-[4-[2-(cyclopentoxy)-3-pyridyl]-2,6-difluoro-phenoxy]ethyl]isoxazol-3-ol] | < 200 nM |
| Oc1cc(CCNc2c(F)cc(-c3cccnc3OC3CCCC3)cc2F)on1 [Example 90, 5-[2-[4-[2-(cyclopentoxy)-3-pyridyl]-2,6-difluoro-anilino]ethyl]isoxazol-3-ol] | 200 to 2000 nM |
| O=C(O)Cc1cnn(-c2ccc(-c3cccnc3SC3CCC3)cc2)c1 [Example 93, 2-[1-[4-(2-cyclobutylsulfanyl-3-pyridyl)phenyl]pyrazol-4-yl]acetic acid] | 2000 to 20000 nM |
| O=C(O)CCCCNc1c(F)cc(-c2cccnc2OC2CCCC2)cc1F [Example 94, 5-[4-[2-(cyclopentoxy)-3-pyridyl]-2,6-difluoro-anilino]pentanoic acid] | < 200 nM |
| CCN(CCCCC(=O)O)c1c(F)cc(-c2cccnc2OC2CCCC2)cc1F [Example 95, 5-[4-[2-(cyclopentoxy)-3-pyridyl]-N-ethyl-2,6-difluoro-anilino]pentanoic acid] | 200 to 2000 nM |
| CC(C)Sc1cccc(-c2cc(F)c(NCCCCC(=O)O)c(F)c2)n1 [Example 96, 5-[2,6-difluoro-4-(6-isopropylsulfanyl-2-pyridyl)anilino]pentanoic acid] | 200 to 2000 nM |
| CC(C)Sc1ncccc1-c1cc(F)c(NCCCCC(=O)O)c(F)c1 [Example 97, 5-[2,6-difluoro-4-(2-isopropylsulfanyl-3-pyridyl)anilino]pentanoic acid] | < 200 nM |
| O=C(O)CCCCNc1c(F)cc(-c2cccc(OCC3CC3)n2)cc1F [Example 98, 5-[4-[6-(cyclopropylmethoxy)-2-pyridyl]-2,6-difluoro-anilino]pentanoic acid] | < 200 nM |
| O=C(O)CCCCNc1c(F)cc(-c2cccnc2OCC2CC2)cc1F [Example 99, 5-[4-[2-(cyclopropylmethoxy)-3-pyridyl]-2,6-difluoro-anilino]pentanoic acid] | < 200 nM |
| O=C(O)CC1CCN(c2c(F)cc(-c3cccnc3SC3CCCC3)cc2F)CC1 [Example 100, 2-[1-[4-(2-cyclopentylsulfanyl-3-pyridyl)-2,6-difluoro-phenyl]-4-piperidyl]acetic acid] | < 200 nM |
| CN(CCCCC(=O)O)c1c(F)cc(-c2cccc(OCC3CC3)n2)cc1F [Example 101, 5-[4-[6-(cyclopropylmethoxy)-2-pyridyl]-2,6-difluoro-N-methyl-anilino]pentanoic acid] | < 200 nM |
| O=C(O)CC1CCN(c2c(F)cc(-c3cccnc3OC3CCCC3)cc2F)CC1 [Example 102, 2-[1-[4-[2-(cyclopentoxy)-3-pyridyl]-2,6-difluoro-phenyl]-4-piperidyl]acetic acid] | < 200 nM |
| O=C(O)CC1CCN(c2c(F)cc(-c3cccnc3OC3CCOC3)cc2F)CC1 (stereo not shown) [Example 103, 2-[1-[2,6-difluoro-4-(2-tetrahydrofuran-3-yloxy-3-pyridyl)phenyl]-4-piperidyl]acetic acid] | 200 to 2000 nM |
| CC(C)Sc1ncccc1-c1cc(F)c(N2CCC(CC(=O)O)CC2)c(F)c1 [Example 104, 2-[1-[2,6-difluoro-4-(2-isopropylsulfanyl-3-pyridyl)phenyl]-4-piperidyl]acetic acid] | < 200 nM |
| CC(C)Sc1cccc(-c2cc(F)c(N3CCC(CC(=O)O)CC3)c(F)c2)n1 [Example 105, 2-[1-[2,6-difluoro-4-(6-isopropylsulfanyl-2-pyridyl)phenyl]-4-piperidyl]acetic acid] | < 200 nM |
| O=C(O)CC1CCN(c2c(F)cc(-c3cccc(OCC4CC4)n3)cc2F)CC1 [Example 106, 2-[1-[4-[6-(cyclopropylmethoxy)-2-pyridyl]-2,6-difluoro-phenyl]-4-piperidyl]acetic acid] | < 200 nM |

| Structure (SMILES) | EC50 |
| --- | --- |
| CC(C)Sc1ncccc1-c1cc(F)c(N2CCCC(CC(=O)O)C2)c(F)c1 (stereo not shown) [Example 108, 2-[1-[2,6-difluoro-4-(2-isopropylsulfanyl-3-pyridyl)phenyl]-3-piperidyl]acetic acid] | 2000 to 20000 nM |
| CC(C)Sc1ncccc1-c1cc(F)c(N2CC(CC(=O)O)C2)c(F)c1 [Example 109, 2-[1-[2,6-difluoro-4-(2-isopropylsulfanyl-3-pyridyl)phenyl]azetidin-3-yl]acetic acid] | < 200 nM |
| CC(C)Sc1ncccc1-c1cc(F)c(N2CCC3(CC2)CC3C(=O)O)c(F)c1 (stereo not shown) [Example 110, 6-[2,6-difluoro-4-(2-isopropylsulfanyl-3-pyridyl)phenyl]-6-azaspiro[2.5]octan-2-carboxylic acid] | 200 to 2000 nM |
| CC(C)Sc1cccc(-c2cc(F)c(N3CCC4(CC3)CC4C(=O)O)c(F)c2)n1 (stereo not shown) [Example 111, 6-[2,6-difluoro-4-(6-isopropylsulfanyl-2-pyridyl)phenyl]-6-azaspiro[2.5]octan-2-carboxylic acid] | 2000 to 20000 nM |
| O=C(O)CC1CN(c2c(F)cc(-c3cccnc3SC3CCCC3)cc2F)C1 [Example 112, 2-[1-[4-(2-cyclopentylsulfanyl-3-pyridyl)-2,6-difluoro-phenyl]azetidin-3-yl]acetic acid] | < 200 nM |
| O=C(O)CC1CN(c2c(F)cc(-c3cccnc3OC3CCCC3)cc2F)C1 [Example 113, 2-[1-[4-[2-(cyclopentoxy)-3-pyridyl]-2,6-difluoro-phenyl]azetidin-3-yl]acetic acid] | < 200 nM |
| CC(C)Sc1cccc(-c2cc(F)c(N3CC(CC(=O)O)C3)c(F)c2)n1 [Example 114, 2-[1-[2,6-difluoro-4-(6-isopropylsulfanyl-2-pyridyl)phenyl]azetidin-3-yl]acetic acid] | < 200 nM |
| CC(C)Oc1cccc(-c2cc(F)c(N3CC(CC(=O)O)C3)c(F)c2)n1 [Example 115, 2-[1-[2,6-difluoro-4-(6-isopropoxy-2-pyridyl)phenyl]azetidin-3-yl]acetic acid] | < 200 nM |
| O=C(O)CC1CN(c2c(F)cc(-c3cccc(OC4CCCC4)n3)cc2F)C1 [Example 116, 2-[1-[4-[6-(cyclopentoxy)-2-pyridyl]-2,6-difluoro-phenyl]azetidin-3-yl]acetic acid] | < 200 nM |
| CCCSc1ncccc1-c1cc(F)c(N2CCC(CC(=O)O)CC2)c(F)c1 [Example 117, 2-[1-[2,6-difluoro-4-(2-propylsulfanyl-3-pyridyl)phenyl]-4-piperidyl]acetic acid] | < 200 nM |
| O=C(O)CC1CCN(c2c(F)cc(-c3cccnc3SC3CCC3)cc2F)CC1 [Example 118, 2-[1-[4-(2-cyclobutylsulfanyl-3-pyridyl)-2,6-difluoro-phenyl]-4-piperidyl]acetic acid] | 200 to 2000 nM |
| CC(C)Oc1ncccc1-c1cc(F)c(N2CCC(CC(=O)O)CC2)c(F)c1 [Example 119, 2-[1-[2,6-difluoro-4-(2-isopropoxy-3-pyridyl)phenyl]-4-piperidyl]acetic acid] | 200 to 2000 nM |
| CCCOc1ncccc1-c1cc(F)c(N2CCC(CC(=O)O)CC2)c(F)c1 [Example 120, 2-[1-[2,6-difluoro-4-(2-propoxy-3-pyridyl)phenyl]-4-piperidyl]acetic acid] | 200 to 2000 nM |
| O=C(O)CC1CCN(c2c(F)cc(-c3cccnc3OCC3CC3)cc2F)CC1 [Example 121, 2-[1-[4-[2-(cyclopropylmethoxy)-3-pyridyl]-2,6-difluoro-phenyl]-4-piperidyl]acetic acid] | < 200 nM |
| CC(C)Sc1ncccc1-c1cc(F)c(-n2cc(CC(=O)O)cn2)c(F)c1 [Example 122, 2-[1-[2,6-difluoro-4-(2-isopropylsulfanyl-3-pyridyl)phenyl]pyrazol-4-yl]acetic acid] | 2000 to 20000 nM |
| CC(C)Sc1cccc(-c2cc(F)c(-n3cc(CC(=O)O)cn3)c(F)c2)n1 [Example 123, 2-[1-[2,6-difluoro-4-(6-isopropylsulfanyl-2-pyridyl)phenyl]pyrazol-4-yl]acetic acid] | 200 to 2000 nM |
| CC(C)Sc1ncccc1-c1cc(F)c(N2CCC(CC(=O)O)C2)c(F)c1 (stereo not shown) [Example 124, 2-[1-[2,6-difluoro-4-(2-isopropylsulfanyl-3-pyridyl)phenyl]pyrrolidin-3-yl]acetic acid] | < 200 nM |
| CC(C)Sc1cccc(-c2cc(F)c(N3CCC(CC(=O)O)C3)c(F)c2)n1 (stereo not shown) [Example 125, 2-[1-[2,6-difluoro-4-(6-isopropylsulfanyl-2-pyridyl)phenyl]pyrrolidin-3-yl]acetic acid] | < 200 nM |
